For this assay, the system named is Erdnußlectin (Arachis Hypogea). As to the kind of experiment: Inhibition of peanut lectin haemagglutination of neuraminidase-treated erythrocytes. To be noted: compound at 0,5 mg/ml; erythrocytes as 2,5% suspension; lectin titer 2-^8. It counts as cell-based. How it is done: Inhibition von Erdnußlectin (Arachis Hypogea) mit Verbindung 29
Die Hämagglutination von Neuraminidase(VCN)-behandelten Erythrozyten (als 2,5%-ige Suspension) mit Erdunßlectin (Titer 2-^8) wurde vollständig mit Verbindung 29 (0,5 mg/ml) inhibiert.

This note sets out measurements from EP0176913A2, “Glycourethane derivatives, methods for their preparation and their use” (BEHRINGWERKE Aktiengesellschaft, priority 1984, dated 1986).

Molecules are shown by their SMILES.

Regarding `CC(=O)N[C@H]1[C@@H](OC(=O)N[C@@H](CO)C(=O)NCCCCCC(=O)O)O[C@H](CO)[C@H](O)[C@@H]1O[C@@H]1O[C@H](CO)[C@H](O)[C@H](O)[C@H]1O` [Verbindung 29, N-((2-Acetamido-2-desoxy-3-0-(8-D-galactopyranosyl)-alpha-D-galactopyranosyl)-oxycarbonyl)-L-seryl-S-carboxy-pentylamid], the “Hämagglutination von Neuraminidase(VCN)-behandelten Erythrozyten mit Erdunßlectin inhibiert” value is listed as “vollständig”.
